These results are taken from patent US9260382B2, “Methods of reducing virulence in bacteria” (priority 2010, dated 2016).

One test concerns hrpL mRNA. The test is described as follows: qRT-PCR relative mRNA level of hrpL. The format is cell-based, Dickeya dadantii 3937. The settings on record: MM supplemented with 0.1 mM. As for the experimental part:
(§1) Bacterial strains were grown in MM. Total RNA from the bacterial cells was isolated by using the TRI reagent method (Sigma, Mo.) and treated with Turbo DNA-free DNase kits (Ambion, Tex.) as described (Peng et al., 2006). An iScript cDNA Synthesis Kit (Bio-Rad, CA) was used to synthesize cDNA from 0.5 μg of treated total RNA. The Real Master Mix (Eppendorf, Westbury, N.Y.) was used for qRT-PCR reaction to quantify the cDNA level of target genes in different samples. The rplU was used as the endogenous control for data analysis. qRT-PCR data were analyzed using Relative Expression Software Tool as described (Pfaffl, M. W., Horgan, G. W., and Dempfle, L. (2002) Relative expression software tool (REST) for group-wise comparison and statistical analysis of relative expression results in real-time PCR. Nucleic Acids Res 30:e36.).
For orientation: Real-time PCR tracks product formation cycle by cycle.

A further test relates to hrpN mRNA. As to the kind of experiment: qRT-PCR relative mRNA level of hrpN. It is filed as cell-based, Dickeya dadantii 3937. Particulars: 0.1 mM in MM. As for the experimental part: as §1
Test [1] relates to mrp promoter (reference gene). The test is described as follows: GFP reporter plasmid pmrp, flow cytometry (reference gene). The format is cell-based, Dickeya dadantii 3937. The settings on record: for mean fluorescence intensity of GFP, mrp promoter: 3937 (pmrp), MM + 100 μM. As for the experimental part: FACS analysis of promoter activity of dspE, hrpA, hrpL, hrpN, and hrpS was carried out as described (Peng et al., 2006). Briefly, the wild-type Ech3937 and the mutant strains carrying the promoter reporter plasmid were grown on LB broth at 28° C. overnight and transferred to appropriate media. For FACS analysis, samples were collected by centrifugation, washed with 1× phosphate buffer saline (PBS) at 13,000 rpm for 1 min, and re-suspended in 1×PBS to ca 10^6 CFU/ml prior to being run in a FACS Calibur flow cytometer (BD Biosciences, CA). Three replicates were performed for each treatment.
Since OCA and TCA induced the expression of hrpN, the effect of these two phenolic compounds on the expression of hrpA, hrpL, and hrpS was investigated further. […] GFP intensity was determined on gated populations of bacterial cells by flow cytometry and analyzed with the Cell Quest software (BD Biosciences, San Jose, Calif.). The lines labeled “1” stand for the GFP expression control base level of the Ech3937 containing pPROBE-AT vector; lines labeled “2” stand for the promoter activity of hrpS, hrpL, hrpA and hrpN in Ech3937 in MM; lines labeled “3” stand for the promoter activity of Ech3937 in MM supplemented with 0.1 mM OCA; lines labeled “4” stand for the promoter activity of hrpL mutant WPP96 in MM; lines labeled “5” stand for the promoter activity of hrpL mutant WPP96 in MM supplemented with 0.1 mM OCA. Values are representative of at least two experiments. […] Compared with MM alone, the average GFP fluorescence intensity of bacterial cells of Ech3937 (phrpA) was doubled when 0.1 mM of OCA and TCA were added to the medium (Table 4; FIG. 3). […] The mrp, whose protein product has an ATPase conserved domain (2e-06), was used as a reference gene in this study.
For orientation: Flow cytometry measures light scatter and fluorescence of single cells or particles in a stream.

Another test relates to hrpA promoter (T3SS). As to the kind of experiment: hrpA promoter activity assay in DC3000 (GFP, flow cytometry). It is filed as cell-based, Pseudomonas syringae pv. tomato DC3000. Particulars: DC3000 (phrpA). As for the experimental part: Expression of hrpA was analyzed using a FACS Calibur flow cytometer as previously described (BD Biosciences, CA) (Peng et al. 2006). Wild-type DC3000 carrying the promoter-probe phrpA or pPROBE-NT (vector control) was grown in KB broth overnight and transferred to HIM or HIM supplemented with different compounds as described (Li et al. 2009). The promoter activity of hrpA in DC3000 was monitored by measuring GFP intensity using flow cytometry.
(§2) To determine the maximum concentration of TCA that will inhibit hrpA promoter activity without affecting bacterial growth, DC3000 carrying phrpA was cultured in HIM and HIM supplemented with 25 μM, 50 μM, 100 μM, 250 μM, or 500 μM of TCA. Promoter activity was measured at 6 h and 9 h as mentioned above using flow cytometry. Bacterial growth was determined by withdrawing samples of each culture and spot-plating serial dilutions onto King's B agar (King et al. 1954) in tandem with promoter activity assays. Colonies were counted after 48 h of incubation at 28° C.

For test [2], the system named is Pseudomonas syringae pv. tomato DC3000. As to the kind of experiment: DC3000 bacterial growth, colony counts. It is filed as cell-based. Particulars: 6 h and 9 h. As for the experimental part: as §2
Test [3] has the same test system. The test is described as follows: Virulence assay in tomato plants (bacterial speck). It is filed as in vivo. Particulars: five days post-inoculation; for bacterial speck lesions on tomato plants, in words: DC3000 with 250 μM. The protocol:
Virulence assays were performed in 4-5 week old tomato plants. Bacterial cell suspensions were adjusted to 6×10^5 cells/ml in dH2O with 0.02% Silwet L-77 (Lehle Seeds, Round Rock, Tex.). Lycopersicon esculentum cv. Moneymaker plants were dip-inoculated into negative control solution (dH2O with 0.02% Silwet L-77 and DMSO), positive control solution (DC3000 in dH2O with 0.02% Silwet L-77 and DMSO), or with a chemical treatment solution (DC3000 in dH2O with 0.02% Silwet L-77 and 250 μM TCA). Leaves were air-dried and plants were covered with a plastic dome and returned to the growth chamber. Plants were scored for disease symptoms using a modified scoring system (Kozik and Nowakowska 2010) five days post-inoculation. Lesions of bacterial speck on tomato were counted and the plants were scored using the following DSI scale: 0=no lesions per plant, 1=1-10 lesions, 2=11-20 lesions, 3=21-40 lesions, 4=>40 lesions.
The effects of TCA on virulence in tomato plants were examined. Lycopersicon esculentum cv. Moneymaker plants were dip-inoculated with a negative control treatment (dH2O with 0.02% Silwet L-77 and DMSO), a positive control treatment (DC3000 in dH2O with 0.02% Silwet L-77 and DMSO), or with a chemical treatment (DC3000 in dH2O with 0.02% Silwet L-77 and 250 μM TCA) as described in the methods. The lesions of bacterial speck on leaves per plant were counted and plants were classified with a disease severity index (DSI) as described in the methods. […] Plants treated with DC3000 were all scored with a DSI of four (FIG. 36B).

In a further test the test system is hrpS mRNA. As to the kind of experiment: qRT-PCR relative mRNA level of hrpS. It is filed as cell-based, Dickeya dadantii 3937. The settings on record: 0.1 mM in MM. The protocol: as §1
The subject of a further test is gacA mRNA. The test is described as follows: qRT-PCR relative mRNA level of gacA. It is filed as cell-based, Dickeya dadantii 3937. Particulars: 0.1 mM in MM. As for the experimental part: as §1

`O=C(O)/C=C/c1ccc(O)cc1` [Compound 004, para-coumaric acid]: the “hrpL mRNA relative expression ratio (MM alone normalized to 1)” value in the test with hrpL mRNA is recorded as 0.039. In addition, in the test on hrpN mRNA, the “hrpN mRNA compared with MM alone, in words” value was “significantly lower amount of mRNA”.

Turning to `O=C(O)/C=C/c1ccccc1` [Compound 001, trans-cinnamic acid], in test [1] (Ech3937 (pmrp), MM + 0.1 mM compound, 12 h), the “GFP Mean Fluorescence Intensity, mrp promoter (reference gene)” value is reported as 105 ± 0.3. In addition, the “effect on hrpA promoter activity, in words” value is given as “less substantial effect” in the test with hrpA promoter (T3SS) (HIM + 25 μM or 50 μM); “almost complete repression of hrpA promoter activity” in the test on hrpA promoter (T3SS) (HIM + 250 μM and 500 μM). Moreover, the “reduction in hrpA promoter activity” value with hrpA promoter (T3SS) (HIM + 100 μM) came out at 3 fold. The “colony counts of DC3000 vs control culture, in words” value in test [2] (HIM + 500 μM) is listed as “slightly lower”. Also, the “effect on growth of DC3000, in words” value in test [2] (HIM, at or below concentrations of 250 μM) is reported as “does not significantly inhibit nor enhance growth”. Also, the “disease severity index (DSI)” value in test [3] (tomato Lycopersicon esculentum cv. Moneymaker dip-inoculated with DC3000 and 250 μM) was “zero”. Besides, the “bacterial speck lesions on tomato plants, in words” value was “No lesions of bacterial speck were observed” in test [3] and “no bacterial speck lesions were observed” in test [3] (listed as TCA).

For `O=C(O)/C=C/c1ccccc1O` [Compound 006, Ortho-coumaric acid], the “hrpS mRNA compared with MM alone, in words” value with hrpS mRNA was “No significant difference”. Also, in the test with gacA mRNA, the “gacA mRNA compared with MM alone, in words” value is on record as “No significant difference”.

With `O=C(/C=C/c1ccc(O)cc1)NO` [Compound 103, trans-4-Hydroxycinnamohydroxamic acid], the figures for the “mean fluorescence intensity of GFP, mrp promoter” value in test [1] (12 h) and in test [1] (24 h) were 81.2 ± 0.7 and 67.7 ± 2.5, respectively.
